Experiments:
[1] = target: activated blood coagulation factor X (FXa) (Homo sapiens, UniProt P00742); assay: FXa inhibitory effect; type: biochemical
distribution volume = details: in vivo

Chain of activated blood coagulation factor X (FXa) (P00742 235-488 limits assumed): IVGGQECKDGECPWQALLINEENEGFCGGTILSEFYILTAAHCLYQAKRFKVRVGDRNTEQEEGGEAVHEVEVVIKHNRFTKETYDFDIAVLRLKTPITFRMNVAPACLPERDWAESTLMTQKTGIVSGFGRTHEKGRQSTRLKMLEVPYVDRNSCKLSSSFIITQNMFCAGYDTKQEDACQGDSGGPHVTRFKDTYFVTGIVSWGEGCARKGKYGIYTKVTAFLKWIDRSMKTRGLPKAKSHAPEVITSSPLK
Chain of activated blood coagulation factor X (FXa) (P00742 41-179 partner limits assumed): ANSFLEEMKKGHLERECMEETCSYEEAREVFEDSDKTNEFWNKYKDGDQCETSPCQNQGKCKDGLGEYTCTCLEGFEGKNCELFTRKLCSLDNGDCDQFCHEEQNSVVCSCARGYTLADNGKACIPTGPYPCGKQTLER

IC50 [1]: < 100 nM
distribution volume (distribution volume): 0.8 L/kg
SMILES: CN(C)C(=O)c1ccc2oc(C(=O)Nc3ccc(Cl)cn3)c(NC(=O)[C@H]3CC[C@H](N(C)C=O)CC3)c2c1 [trans-5-dimethylaminocarbonyl-3-[4-(N-formyl-N-methylamino)-cyclohexylcarbonylamino]-N-(5-chloropyridin-2-yl)-benzofuran-2-carboxamide]

Source: patent US7531537B2, “Benzofuran derivative” (Mitsubishi Tanabe Pharma Corporation, priority 2002, dated 2009)
